Data as given in patent US20230181597A1, “METAL COMPLEXES OF NOCARDAMINE AND THEIR USE IN PHARMACEUTICAL COMPOSITIONS” (priority 2014, published 2023).

Columns and labels:
[1] = cited from earlier work
[2] = system: croton oil-induced irritant contact dermatitis (ICD) in mice ears; assay: Croton oil-induced irritant contact dermatitis (ICD) model, ear swelling; format: in vivo, Balb/c female mice
[3] = system: Bombyx mori (silkworm) ovary-derived cultured cell line cells; conditions: reported in the literature; cited from earlier work
IL-6 = IL-6 level in ear tissue of ICD mice (ELISA); format: in vivo, Balb/c female mice; conditions: t=6 h after croton oil, 0.5% ointment (FIG. 6B)
Description: (§1) The samples were homogenized, and protein concentration was measured by Bradford procedure. The concentration of cytokines was determined by ELISA method, using commercially available kits according to the Manufacturer's protocols (RayBiotech, GA, USA).
(§2) In order to study the underlying mechanism of the zinc-nocardamine complex, its assumed anti-inflammatory activity was tested by measuring the concentrations of various pro-inflammatory cytokines, in the ears, along the experimental protocol, specifically, IL-1α, IL-6, IL-17 and TNF-α. The concentration of these cytokines were measured in ear tissue that had been exposed to croton oil (at t=0) and was left untreated to t=6 h. The concentration was compared to the concentrations at t=6 h, in ears which were exposed at t=0, and treated with the complex at t=3 h.
(§3) The effect of ICD-induced inflammatory process on the concentration of IL-1α, IL-6, TNF-α and IL-17 within the ear tissue is shown in FIG. 6A-6D. […] The concentration of the cytokines was determined by ELISA method, using commercially available kits, according to the Manufacturer protocol (RayBiotech, GA, USA)

P. aeruginosa [4] = assay: Bactericidal activity (bacterial viability) on Petri dishes; format: cell-based, Pseudomonas aeruginosa; conditions: 5 mg/ml (FIG. 9B)
Description: (§4) The concentrations of zinc-nocardamine, in four quadrants (1-4) of a Petri dish, were set as follows: 1-0 mg/ml; 2-5 mg/ml; 3-1.7 mg/ml; 4-0.5 mg/ml.
(§5) The anti-bacterial effect of zinc-nocardamine was assessed on the following types of pathogenic bacteria: E. coli (Gram-negative), P. aeruginosa (Gram-negative) and S. aureus (Gram-positive) (isolated in Hadassah-Ein Karem Hospital). More specifically, the experiment was performed as following: Each bacterial strain was grown overnight at 37° C., under aeration of 200 rpm, in the appropriate medium (EPEC (E. coli)) and P. aeruginosa in LB broth, S. aureus in BHI broth. Both media were purchased from BD (NJ, USA). Series of three-fold consecutive dilutions were performed in a 96-well plate, and bacteria were then added to the wells at a final OD600 of 0.01. The experiments with all three strains were performed in duplicate. Zinc-nocardamine 10 mg/ml aqueous solution was prepared in advance; prior to the experiment it was diluted in the appropriate media in a ratio of 1:2, to obtain a stock concentration of 5 mg/ml. This stock was further diluted to 1.7, 0.5, 0.18, 0.06, 0.02, 0.002, 0.0007, and 0.0002 mg/ml and added to appropriate wells. Then the plate was incubated in a plate reader for 24 h, and the kinetics of OD measurements were recorded every 20 minutes by Eon plate reader (BioTek, VE, USA). […]

S. aureus [5] = assay: as above; format: cell-based, Staphylococcus aureus; conditions: 5 mg/ml (FIG. 9C)
Description: as §4, §5

S. aureus [6] = assay: Bacterial growth curves (OD, 96-well plate, 24 h); format: cell-based, Staphylococcus aureus
Description: as §5, with “Zinc-nocardamine 10 mg/ml aqueous solution was prepared in advance; prior to the experiment it was diluted in the appropriate media in a ratio of 1:2, to obtain a stock concentration of 5 mg/ml. This stock was further diluted to 1.7, 0.5, 0.18, 0.06, 0.02, 0.002, 0.0007, and 0.0002 mg/ml and added to appropriate wells.” left out
(§6) The anti-bacterial effect of zinc-nocardamine was assessed on the following types of pathogenic bacteria: E. coli (Gram-negative), P. aeruginosa (Gram-negative) and S. aureus (Gram-positive) (isolated in Hadassah-Ein Karem Hospital). […] The plate was then incubated in a plate reader for 24 h, and the kinetics of OD measurements were recorded, every 20 minutes. […]

TNF-α = TNF-α level in ear tissue of ICD mice (ELISA); format: in vivo, Balb/c female mice; conditions: t=6 h after croton oil, 0.5% ointment (FIG. 6C)
Description: as §1, §2, §3

E. coli (EPEC) = assay: Bacterial growth curves (OD, 96-well plate, 24 h); format: cell-based, Escherichia coli; conditions: 1.7 mg/ml (FIG. 8A)
Description: as §5, with “Zinc-nocardamine 10 mg/ml aqueous solution was prepared in advance; prior to the experiment it was diluted in the appropriate media in a ratio of 1:2, to obtain a stock concentration of 5 mg/ml. This stock was further diluted to 1.7, 0.5, 0.18, 0.06, 0.02, 0.002, 0.0007, and 0.0002 mg/ml and added to appropriate wells.” left out
as §6

IL-1α = IL-1α level in ear tissue of ICD mice (ELISA); format: in vivo, Balb/c female mice; conditions: t=6 h after croton oil, 0.5% ointment (FIG. 6A)
Description: as §1, §2, §3

P. aeruginosa [7] = assay: Bacterial growth curves (OD, 96-well plate, 24 h); format: cell-based, Pseudomonas aeruginosa; conditions: 1.7 mg/ml (FIG. 8B)
Description: as §5, with “Zinc-nocardamine 10 mg/ml aqueous solution was prepared in advance; prior to the experiment it was diluted in the appropriate media in a ratio of 1:2, to obtain a stock concentration of 5 mg/ml. This stock was further diluted to 1.7, 0.5, 0.18, 0.06, 0.02, 0.002, 0.0007, and 0.0002 mg/ml and added to appropriate wells.” left out
as §6

IL-17 = IL-17 level in ear tissue of ICD mice (ELISA); format: in vivo, Balb/c female mice; conditions: t=6 h after croton oil, 0.5% ointment (FIG. 6D)
Description: as §1, §2, §3

E. coli = assay: Bactericidal activity (bacterial viability) on Petri dishes; format: cell-based, Escherichia coli; conditions: 5 mg/ml (FIG. 9A)
Description: as §4, §5

IL-13 = IL-13 level in ear tissue of ICD mice (ELISA); format: in vivo, Balb/c female mice; conditions: 0.5% ointment at t=3 h, measured at t=6 h (FIG. 7)
Description: as §1
The assumed anti-inflammatory activity of the zinc-nocardamine complex was tested by measuring the concentrations of various anti-inflammatory cytokines, specifically, IL-4, IL-10 and IL-13, in ear tissue of mice. The concentrations of these cytokines were measured and their pattern of change along the experiment was compared for each: at baseline t=0 (no exposure), at t=3 h after exposure to croton oil, at t=6 h after exposure to croton oil, and at 6 h after exposure to croton oil where these ears had been treated with the zinc-nocardamine complex at t=3 h after the exposure to the croton oil. […] The concentration of the cytokines was determined by ELISA method, using commercially available ELISA kits, according to the Manufacturer protocol (RayBiotech, GA, USA; Diaclone, Besançon, France).

**Q.** Which water solubility [1] does the source give for `CC(=O)N(O)CCCCCNC(=O)CCC(=O)N(O)CCCCCNC(=O)CCC(=O)N(O)CCCCCN` [desferrioxamine B] here?
**A.** about 50 mg/ml

**Q.** For `O=C1CCC(=O)N(O)CCCCCNC(=O)CCC(=O)N(O)CCCCCNC(=O)CCC(=O)N(O)CCCCCN1` [nocardamine], which “recovery from ICD versus untreated and zinc-nocardamine groups” value ([2]; 0.5% w/w ointment applied 3 h after croton oil (FIG. 2B)) is on record?
**A.** recovered better than the untreated ones, their recovery was much slower than the recovery observed in mice that received zinc-nocardamine complex

**Q.** What about the “water solubility (description)” value [1] of the same compound?
**A.** soluble in water with heating

**Q.** What about the “change of cell morphology” value [3] of the same compound?
**A.** change the morphology of insect Bombyx mori (silkworm) ovary-derived cultured cell line cells into spindle-like configuration

**Q.** Which results are given for zinc-nocardamine complex?
**A.** concentration of IL-6 in ear tissue (IL-6): reduced the concentration of the cytokines to nearly the basal level; optimal concentration in Vaseline-based ointment ([2]; dose-response 0.1, 0.2, 0.5%, applied 3 h after irritant (FIG. 3)): 0.5%; bactericidal activity on P. aeruginosa (P. aeruginosa [4]): bactericidal activity was obtained; bactericidal activity on S. aureus (S. aureus [5]): bactericidal activity was obtained; growth inhibition of S. aureus (S. aureus [6]; 0.5 mg/ml (FIG. 8C)): growth inhibition was observed; growth inhibition of S. aureus (S. aureus [6]; 1.7 mg/ml (FIG. 8C)): growth inhibition was observed; concentration of TNF-α in ear tissue (TNF-α): reduced the concentration of the cytokines to nearly the basal level; growth inhibition of E. coli (E. coli (EPEC)): growth inhibition was observed; concentration of IL-1α in ear tissue (IL-1α): reduced the concentration of the cytokines to nearly the basal level; growth inhibition of P. aeruginosa (P. aeruginosa [7]): mild inhibition; concentration of IL-17 in ear tissue (IL-17): reduced the concentration of the cytokines to nearly the basal level; bactericidal activity on E. coli (E. coli): bactericidal activity was obtained; IL-13 level in ear tissue (IL-13): restoring the IL-13 level back to its baseline level
